Reference: PubChem BioAssay (NCI)
Values joined by “and” are separate entries in the source; they are usually repeats but may differ in a detail not shown here. Equal values may be shown once.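 Method: 48-hour compound exposure of cells in 96-well plates, five concentrations, linear interpolation of endpoints. GI50: concentration for 50% inhibition of growth. TGI denotes the concentration required for complete inhibition of growth.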

What was measured:
Assay in all cases: growth of human tumour cells (NCI), 48 h
[1] = test system: T-47D breast
[2] = test system: M14 melanoma
[3] = test system: NCI/ADR-RES ovarian
[4] = test system: HL-60(TB) leukemia
[5] = test system: SK-MEL-28 melanoma
[6] = test system: A549 NSCLC
[7] = test system: HOP-62 NSCLC
[8] = test system: IGROV1 ovarian
[9] = test system: SK-MEL-2 melanoma
[10] = test system: MCF7 breast
[11] = test system: ACHN renal
[12] = test system: SNB-75 CNS
[13] = test system: CCRF-CEM leukemia
[14] = test system: SF-268 CNS
[15] = test system: MDA-MB-435
[16] = test system: 786-0 renal
[17] = test system: NCI-H460 lung
[18] = test system: SK-OV-3 ovarian
[19] = test system: MOLT-4 leukemia
[20] = test system: OVCAR-5 ovarian
[21] = test system: U251 CNS
[22] = test system: UACC-62 melanoma
[23] = test system: SK-MEL-5 melanoma
[24] = test system: RPMI-8226 leukemia
[25] = test system: COLO 205 colon
[26] = test system: NCI-H23 lung
[27] = test system: CAKI-1 renal
[28] = test system: RXF 393 renal
[29] = test system: SR leukemia
[30] = test system: OVCAR-4 ovarian
[31] = test system: K-562 leukemia
[32] = test system: MALME-3M melanoma
[33] = test system: SW-620 colon
[34] = test system: HCC-2998 colon
[35] = test system: HOP-92 NSCLC
[36] = test system: BT-549 breast
[37] = test system: SNB-19 CNS
[38] = test system: SF-295 CNS
[39] = test system: TK-10 renal
[40] = test system: HS 578T breast
[41] = test system: HCT-116 colon
[42] = test system: MDA-MB-231 breast
[43] = test system: SF-539 CNS
[44] = test system: NCI-H226 lung
[45] = test system: PC-3 prostate
[46] = test system: UO-31 renal
[47] = test system: UACC-257 melanoma
[48] = test system: DU-145 prostate
[49] = test system: A498 renal
[50] = test system: KM12 colon
[51] = test system: OVCAR-3 ovarian
[52] = test system: HT29 colon
[53] = test system: NCI-H522 lung
[54] = test system: EKVX NSCLC
[55] = test system: LOX IMVI melanoma
[56] = test system: OVCAR-8 ovarian
[57] = test system: SN12C renal
[58] = test system: HCT-15 colon

For `COc1ccc(-c2coc3cc(O)cc(O)c3c2=O)cc1`, the TGI [1] was greater than 10000 nM, the TGI [2] was greater than 10000 nM and the TGI [3] was greater than 10000 nM. For the same compound, the TGI [4] was greater than 10000 nM, the TGI [5] was greater than 10000 nM and the TGI [6] was greater than 10000 nM. It also gave a TGI [7] greater than 10000 nM, a TGI [8] greater than 10000 nM and a TGI [9] greater than 10000 nM. It also gave a TGI [10] greater than 10000 nM, a TGI [11] greater than 10000 nM and a TGI [12] greater than 10000 nM. For the same compound, the TGI [13] was greater than 10000 nM, the TGI [14] was greater than 10000 nM and the TGI [15] was greater than 10000 nM. The TGI [16] was greater than 10000 nM, the TGI [17] was greater than 10000 nM and the TGI [18] was greater than 10000 nM. It also gave a TGI [19] greater than 10000 nM, a TGI [20] greater than 10000 nM and a TGI [21] greater than 10000 nM. The TGI [22] was greater than 10000 nM, the TGI [23] was greater than 10000 nM and the TGI [24] was greater than 10000 nM. The TGI [25] was greater than 10000 nM, the TGI [26] was greater than 10000 nM and the TGI [27] was greater than 10000 nM. It also gave a TGI [28] greater than 10000 nM, a TGI [29] greater than 10000 nM and a TGI [30] greater than 10000 nM. The TGI [31] was greater than 10000 nM, the TGI [32] was greater than 10000 nM and the TGI [33] was greater than 10000 nM.
`Cc1ccc(NC(=O)c2nc(S(C)(=O)=O)oc2-c2ccc(F)cc2)cc1Nc1ccc2ncn(C)c(=O)c2c1` gave a GI50 [2] of 1750 nM, a TGI [2] of 3720 nM and a GI50 [3] of 3140 nM. It also gave a TGI [3] of 15700 nM, a GI50 [4] of 2110 nM and a TGI [4] of 5200 nM. For the same compound, the GI50 [5] was 1740 nM, the TGI [5] was 3400 nM and the GI50 [34] was 2540 nM. For the same compound, the TGI [34] was 6470 nM, the GI50 [6] was 13900 nM and the TGI [6] was 29500 nM. The GI50 [7] was 2490 nM, the TGI [7] was 7110 nM and the GI50 [35] was 1910 nM. It also gave a TGI [35] of 3870 nM, a GI50 [9] of 1590 nM and a TGI [9] of 3290 nM. The GI50 [36] was 1480 nM, the TGI [36] was 2860 nM and the GI50 [10] was 1900 nM. For the same compound, the TGI [10] was 4430 nM, the GI50 [11] was 1620 nM and the TGI [11] was 2970 nM. For the same compound, the GI50 [12] was 2130 nM, the TGI [12] was 5650 nM and the GI50 [37] was 3460 nM. The TGI [37] was 9860 nM, the GI50 [38] was 16000 nM and the TGI [38] was 31000 nM. For the same compound, the GI50 [39] was 1830 nM, the TGI [39] was 3250 nM and the GI50 [40] was 3060 nM. It also gave a TGI [40] of 14900 nM, a GI50 [15] of 2480 nM and a TGI [15] of 7280 nM. The GI50 [16] was 2000 nM, the TGI [16] was 3550 nM and the GI50 [17] was 3260 nM. The TGI [17] was 10900 nM, the GI50 [41] was 1750 nM and the TGI [41] was 3370 nM. It also gave a GI50 [18] of 14100 nM, a TGI [18] of 27100 nM and a GI50 [20] of 2100 nM. For the same compound, the TGI [20] was 5290 nM, the GI50 [42] was 1640 nM and the TGI [42] was 3150 nM. The GI50 [21] was 2010 nM, the TGI [21] was 3840 nM and the GI50 [43] was 1650 nM. The TGI [43] was 3140 nM, the GI50 [44] was 2330 nM and the TGI [44] was 5520 nM. For the same compound, the GI50 [22] was 2030 nM, the TGI [22] was 4880 nM and the GI50 [45] was 2130 nM. It also gave a TGI [45] of 4470 nM, a GI50 [46] of 1930 nM and a TGI [46] of 3400 nM. The GI50 [47] was 1880 nM, the TGI [47] was 3720 nM and the GI50 [26] was 2790 nM. It also gave a TGI [26] of 9190 nM, a GI50 [48] of 1720 nM and a TGI [48] of 3090 nM. It also gave a GI50 [49] of 16300 nM, a TGI [49] of 29800 nM and a GI50 [50] of 3120 nM. It also gave a TGI [50] of 11100 nM.
`COC(=O)[C@@H](C)C[C@H](Cc1ccccc1)NC(=O)c1csc([C@@H](C[C@H](C(C)C)N(C)C(=O)C2(NC(=O)[C@H]3CCCCN3C)CCC2)OC(C)=O)n1` was tested, and the GI50 [2] was 4.13 nM and 2.5 nM, the TGI [2] was 56.4 nM and 10.7 nM and the GI50 [3] was 16900 nM. The TGI [3] was greater than 25000 nM, the GI50 [4] was 1.16 nM and < 2.5 nM and the TGI [4] was 5.69 nM and < 2.5 nM. For the same compound, the GI50 [5] was 30.7 nM and 6.67 nM, the TGI [5] was greater than 25000 nM and the GI50 [34] was 5.01 nM and 6.28 nM. For the same compound, the TGI [34] was greater than 25000 nM, the GI50 [6] was 56.4 nM and 13.6 nM and the TGI [6] was greater than 25000 nM. The GI50 [7] was 36.7 nM and 7.06 nM, the TGI [7] was greater than 25000 nM and the GI50 [35] was 0.886 nM and 2.5 nM. For the same compound, the GI50 [8] was 0.863 nM and 2.5 nM, the TGI [8] was greater than 25000 nM and the GI50 [51] was 0.487 nM and 2.5 nM. The TGI [51] was 10.1 nM and 6.72 nM, the GI50 [36] was 2.5 nM and the TGI [36] was 15.7 nM. The GI50 [52] was 2.69 nM and 2.5 nM, the TGI [52] was greater than 25000 nM and the GI50 [10] was 0.508 nM and 2.5 nM. The TGI [10] was greater than 25000 nM, the GI50 [11] was 24.9 nM and 19.3 nM and the TGI [11] was greater than 25000 nM. The GI50 [12] was 3.51 nM and 3.19 nM, the TGI [12] was greater than 25000 nM and the GI50 [13] was 5.33 nM and 2.5 nM. The TGI [13] was greater than 25000 nM, the GI50 [53] was 1.65 nM and the GI50 [37] was 7.08 nM. For the same compound, the GI50 [38] was 16.9 nM and 4.04 nM, the TGI [38] was greater than 25000 nM and the TGI [39] was greater than 25000 nM. The GI50 [14] was 6.61 nM and 17.5 nM, the TGI [14] was greater than 25000 nM and the GI50 [40] was 46.3 nM. For the same compound, the GI50 [15] was 0.325 nM and < 2.5 nM, the TGI [15] was 1.79 nM and < 2.5 nM and the TGI [16] was greater than 25000 nM. The GI50 [17] was 5.49 nM and 5.7 nM, the TGI [17] was greater than 25000 nM and the GI50 [41] was 4.47 nM and 2.5 nM. The TGI [41] was 2520 nM, the GI50 [18] was 15.6 nM and 5.04 nM and the TGI [18] was greater than 25000 nM. For the same compound, the GI50 [19] was 10.7 nM and 7.14 nM, the TGI [19] was greater than 25000 nM and the GI50 [20] was 78.6 nM and 9.9 nM. The TGI [20] was greater than 25000 nM, the GI50 [42] was 5.84 nM and 2.5 nM and the TGI [42] was 152 nM. For the same compound, the GI50 [21] was 5.45 nM and 6.27 nM, the TGI [21] was greater than 25000 nM and the TGI [54] was greater than 25000 nM. The GI50 [43] was 7.84 nM and 4.41 nM, the TGI [43] was 51.8 nM and 13.7 nM and the GI50 [44] was 54.7 nM. For the same compound, the TGI [44] was greater than 25000 nM, the GI50 [22] was 2.44 nM and 2.5 nM and the TGI [22] was greater than 25000 nM. The GI50 [55] was 7.71 nM and 2.5 nM, the TGI [55] was greater than 25000 nM and the GI50 [45] was 4.06 nM and 2.5 nM. The TGI [45] was greater than 25000 nM, the GI50 [23] was 4.01 nM and 2.5 nM and the TGI [23] was 146 nM and 125 nM. The GI50 [24] was 2.59 nM and 2.5 nM, the TGI [24] was greater than 25000 nM and the GI50 [25] was 3.35 nM and 2.5 nM. For the same compound, the TGI [25] was 120 nM and 18.2 nM, the GI50 [46] was 734 nM and 157 nM and the TGI [46] was greater than 25000 nM. The GI50 [47] was greater than 25000 nM, the TGI [47] was greater than 25000 nM and the GI50 [26] was 7.79 nM and 8.92 nM. The TGI [26] was greater than 25000 nM, the GI50 [48] was 3.51 nM and 2.5 nM and the TGI [48] was greater than 25000 nM. The GI50 [56] was 16.8 nM and 6.26 nM, the TGI [56] was greater than 25000 nM and the GI50 [29] was 0.495 nM and 2.5 nM. For the same compound, the TGI [29] was greater than 25000 nM, the TGI [30] was greater than 25000 nM and the GI50 [49] was 16.4 nM and 5.48 nM. For the same compound, the TGI [49] was 87.4 nM, the GI50 [31] was 2.52 nM and 2.5 nM and the TGI [31] was greater than 25000 nM. The GI50 [57] was 8.7 nM and 17 nM, the TGI [57] was greater than 25000 nM and the GI50 [32] was 2.5 nM. The TGI [32] was greater than 25000 nM, the GI50 [33] was 5.13 nM and 2.5 nM and the TGI [33] was greater than 25000 nM. The GI50 [50] was 3.19 nM and 5.22 nM, the TGI [50] was greater than 25000 nM and the GI50 [58] was 94.4 nM and 66.5 nM. For the same compound, the TGI [58] was greater than 25000 nM.
